Active and inactive are the calls of the source. The rule behind the calls is not given here.
Tests used:
Curvularia lunata [1] = test: Antifungal activity against Curvularia lunata MTCC 581 at 40 uM/ml after 48 hrs by paper disc diffusion method; assay type: functional
Pseudomonas aeruginosa [2] = test: Antibacterial activity against Pseudomonas aeruginosa ATCC 15499 at 160 uM/ml after 24 hrs by kirby-bauer method; assay type: functional; details: ATCC 15499, 24 h, read-out: IZ
Salmonella typhimurium [3] = test: Antibacterial activity against Salmonella typhimurium ATCC 23564 at 160 uM/ml after 24 hrs by kirby-bauer method; assay type: functional, Salmonella enterica subsp. enterica serovar Typhimurium; details: Salmonella enterica, ATCC 23564, 24 h; read-out: IZ
Escherichia coli [4] = test: Antibacterial activity against Escherichia coli ATCC 35218 at 80 uM/ml after 24 hrs by kirby-bauer method; assay type: functional; details: ATCC 35218, 24 h, read-out: IZ
QG-56 = test: Cytotoxicity against human QG56 cells after 48 hrs by MTT assay; assay type: functional, cell-based
Pseudomonas aeruginosa [5] = test: Antibacterial activity against Pseudomonas aeruginosa ATCC 15499 at 80 uM/ml after 24 hrs by kirby-bauer method; assay type: functional; details: ATCC 15499, 24 h, read-out: IZ
Trichoderma viride [6] = test: Antifungal activity against Trichoderma viride MTCC 1107 at 80 uM/ml after 48 hrs by paper disc diffusion method; assay type: functional
Salmonella typhimurium [7] = test: Antibacterial activity against Salmonella typhimurium ATCC 23564 at 40 uM/ml after 24 hrs by kirby-bauer method; assay type: functional, Salmonella enterica subsp. enterica serovar Typhimurium
Trichoderma viride [8] = test: Antifungal activity against Trichoderma viride MTCC 1107 at 40 uM/ml after 48 hrs by paper disc diffusion method; assay type: functional
Curvularia lunata [9] = test: Antifungal activity against Curvularia lunata MTCC 581 at 20 uM/ml after 48 hrs by paper disc diffusion method; assay type: functional
Escherichia coli [10] = test: Antibacterial activity against Escherichia coli ATCC 35218 at 20 uM/ml after 24 hrs by kirby-bauer method; assay type: functional
Escherichia coli [11] = test: Antibacterial activity against Escherichia coli ATCC 35218 at 40 uM/ml after 24 hrs by kirby-bauer method; assay type: functional
[12] = tested on: Burkholderia pseudomallei; test: Antibacterial activity against Burkholderia pseudomallei NTCC 10274 at 80 uM/ml after 24 hrs by kirby-bauer method; assay type: functional; details: NTCC 10274, 24 h, read-out: IZ
Aspergillus flavus [13] = test: Antifungal activity against Aspergillus flavus MTCC 1021 after 48 hrs by poison food method MTCC 1021; assay type: functional
Trichoderma viride [14] = test: Antifungal activity against Trichoderma viride MTCC 1107 at 20 uM/ml after 48 hrs by paper disc diffusion method; assay type: functional
[15] = tested on: Burkholderia pseudomallei; test: Antibacterial activity against Burkholderia pseudomallei NTCC 10274 at 160 uM/ml after 24 hrs by kirby-bauer method; assay type: functional; details: NTCC 10274, 24 h, read-out: IZ
[16] = tested on: Burkholderia pseudomallei; test: Antibacterial activity against Burkholderia pseudomallei NTCC 10274 at 40 uM/ml after 24 hrs by kirby-bauer method; assay type: functional
Escherichia coli [17] = test: Antibacterial activity against Escherichia coli ATCC 35218 at 160 uM/ml after 24 hrs by kirby-bauer method; assay type: functional; details: ATCC 35218, 24 h, read-out: IZ
Curvularia lunata [18] = test: Antifungal activity against Curvularia lunata MTCC 581 at 80 uM/ml after 48 hrs by paper disc diffusion method; assay type: functional; details: MTCC 581, 48 h, read-out: IZ
Pseudomonas aeruginosa [19] = test: Antibacterial activity against Pseudomonas aeruginosa ATCC 15499 at 20 uM/ml after 24 hrs by kirby-bauer method; assay type: functional
Salmonella typhimurium [20] = test: Antibacterial activity against Salmonella typhimurium ATCC 23564 at 80 uM/ml after 24 hrs by kirby-bauer method; assay type: functional, Salmonella enterica subsp. enterica serovar Typhimurium; details: Salmonella enterica, ATCC 23564, 24 h; read-out: IZ
Aspergillus niger [21] = test: Antifungal activity against Aspergillus niger MTCC 1108 at 160 uM/ml after 48 hrs by paper disc diffusion method; assay type: functional
Trichoderma viride [22] = test: Antifungal activity against Trichoderma viride MTCC 1107 at 160 uM/ml after 48 hrs by paper disc diffusion method; assay type: functional; details: MTCC 1107, 48 h, read-out: IZ
Aspergillus flavus [23] = test: Antifungal activity against Aspergillus flavus MTCC 1021 at 160 uM/ml after 48 hrs by paper disc diffusion method; assay type: functional
Salmonella typhimurium [24] = test: Antibacterial activity against Salmonella typhimurium ATCC 23564 at 20 uM/ml after 24 hrs by kirby-bauer method; assay type: functional; details: Salmonella enterica subsp. enterica serovar Typhimurium
Curvularia lunata [25] = test: Antifungal activity against Curvularia lunata MTCC 581 at 160 uM/ml after 48 hrs by paper disc diffusion method; assay type: functional; details: MTCC 581, 48 h, read-out: IZ
Staphylococcus aureus [26] = test: Antibacterial activity against Staphylococcus aureus ATCC 11632 at 160 uM/ml after 24 hrs by kirby-bauer method; assay type: functional
[27] = tested on: Burkholderia pseudomallei; test: Antibacterial activity against Burkholderia pseudomallei NTCC 10274 at 20 uM/ml after 24 hrs by kirby-bauer method; assay type: functional
Pseudomonas aeruginosa [28] = test: Antibacterial activity against Pseudomonas aeruginosa ATCC 15499 at 40 uM/ml after 24 hrs by kirby-bauer method; assay type: functional
Aspergillus niger [29] = test: Antifungal activity against Aspergillus niger MTCC 1108 after 48 hrs by poison food method; assay type: functional
Staphylococcus aureus [30] = test: Antibacterial activity against Staphylococcus aureus ATCC 11632 at 20 uM/ml after 24 hrs by kirby-bauer method; assay type: functional; details: ATCC 11632, 24 h, read-out: IZ
Staphylococcus aureus [31] = test: Antibacterial activity against Staphylococcus aureus ATCC 11632 at 40 uM/ml after 24 hrs by kirby-bauer method; assay type: functional; details: ATCC 11632, 24 h, read-out: IZ
Aspergillus flavus [32] = test: Antifungal activity against Aspergillus flavus MTCC 1021 at 80 uM/ml after 48 hrs by paper disc diffusion method; assay type: functional; details: MTCC 1021, 48 h, read-out: IZ
Aspergillus flavus [33] = test: Antifungal activity against Aspergillus flavus MTCC 1021 at 40 uM/ml after 48 hrs by paper disc diffusion method; assay type: functional
Aspergillus flavus [34] = test: Antifungal activity against Aspergillus flavus MTCC 1021 at 20 uM/ml after 48 hrs by paper disc diffusion method; assay type: functional
Staphylococcus aureus [35] = test: Antibacterial activity against Staphylococcus aureus ATCC 11632 at 80 uM/ml after 24 hrs by kirby-bauer method; assay type: functional; details: ATCC 11632, 24 h, read-out: IZ
Aspergillus niger [36] = test: Antifungal activity against Aspergillus niger MTCC 1108 at 20 uM/ml after 48 hrs by paper disc diffusion method; assay type: functional
Aspergillus niger [37] = test: Antifungal activity against Aspergillus niger MTCC 1108 at 40 uM/ml after 48 hrs by paper disc diffusion method; assay type: functional
Aspergillus niger [38] = test: Antifungal activity against Aspergillus niger MTCC 1108 at 80 uM/ml after 48 hrs by paper disc diffusion method; assay type: functional

Row | SMILES | zone of inhibition at 160 µM (Pseudomonas aeruginosa [2]) [mm] | zone of inhibition at 160 µM (Salmonella typhimurium [3]) [mm] | zone of inhibition at 80 µM (Escherichia coli [4]) [mm] | IC50 (QG-56) [uM/ml] | zone of inhibition at 80 µM (Pseudomonas aeruginosa [5]) [mm] | inhibition zone (IZ) (Curvularia lunata [9]) | IC50 (HCT-116) [uM/ml] | inhibition zone (IZ) (Escherichia coli [10]) | IC50 (HepG2) [uM/ml] | inhibition zone (IZ) (Escherichia coli [11]) | zone of inhibition at 80 µM [12] [mm] | inhibition zone (IZ) (Trichoderma viride [14]) | zone of inhibition at 160 µM [15] [mm] | zone of inhibition at 160 µM (Escherichia coli [17]) [mm] | zone of inhibition at 80 µM (Curvularia lunata [18]) [mm] | inhibition zone (IZ) (Pseudomonas aeruginosa [19]) | zone of inhibition at 80 µM (Salmonella typhimurium [20]) [mm] | zone of inhibition at 160 µM (Trichoderma viride [22]) [mm] | inhibition zone (IZ) (Salmonella typhimurium [24]) | zone of inhibition at 160 µM (Curvularia lunata [25]) [mm] | other results
1 | COc1cc(/C=C/C(=O)CC(=O)/C=C/c2ccc(O)c(OC)c2)ccc1O [CURCUMIN] | 11 | 12 | 8 | 100 | 9 | inactive | 50 | inactive | 50 | inactive | 8 | inactive | 9 | 10 | 9 | inactive | 10 | 9 | inactive | 11 | inhibition zone (IZ) (Curvularia lunata [1]): inactive; inhibition zone (IZ) (Trichoderma viride [6]): inactive; zone of inhibition at 40 µM (Salmonella typhimurium [7]; Salmonella enterica, ATCC 23564, 24 h, read-out: IZ): 9 mm; inhibition zone (IZ) (Trichoderma viride [8]): inactive; MIC (Aspergillus flavus [13]): inactive; inhibition zone (IZ) [16]: inactive; inhibition zone (IZ) (Aspergillus niger [21]): inactive; inhibition zone (IZ) (Aspergillus flavus [23]): inactive; inhibition zone (IZ) (Staphylococcus aureus [26]): inactive; inhibition zone (IZ) [27]: inactive; inhibition zone (IZ) (Pseudomonas aeruginosa [28]): inactive; MIC (Aspergillus niger [29]): inactive
2 | COc1cc(/C=C/C(=O)C2=C(/C=C/c3ccc(O)c(OC)c3)NC(=O)NC2c2ccccc2)ccc1O (stereo unspecified) | 14 | 11 | 9 | 50 | 12 | inactive | 25 | inactive | 50 | inactive | 17 | inactive | 19 | 17 | 12 | inactive | 8 | 14 | inactive | 18 | zone of inhibition at 40 µM (Curvularia lunata [1]; MTCC 581, 48 h, read-out: IZ): 9 mm; zone of inhibition at 20 µM (Staphylococcus aureus [30]): 14 mm; zone of inhibition at 40 µM (Staphylococcus aureus [31]): 17 mm; zone of inhibition at 80 µM (Aspergillus flavus [32]): 9 mm; zone of inhibition at 80 µM (Trichoderma viride [6]; MTCC 1107, 48 h, read-out: IZ): 11 mm; inhibition zone (IZ) (Salmonella typhimurium [7]; Salmonella enterica subsp. enterica serovar Typhimurium): inactive; zone of inhibition (Trichoderma viride [8]; MTCC 1107, 48 h, read-out: IZ): 9 mm; inhibition zone (IZ) (Aspergillus flavus [33]): inactive; inhibition zone (IZ) (Aspergillus flavus [34]): inactive; zone of inhibition at 80 µM (Staphylococcus aureus [35]): 19 mm; inhibition zone (IZ) (Aspergillus niger [36]): inactive; zone of inhibition at 40 µM ([16]; NTCC 10274, 24 h, read-out: IZ): 16 mm; zone of inhibition at 160 µM (Aspergillus niger [21]; MTCC 1108, 48 h, read-out: IZ): 9 mm; inhibition zone (IZ) (Aspergillus niger [37]): inactive; inhibition zone (IZ) (Aspergillus niger [38]): inactive; zone of inhibition at 160 µM (Aspergillus flavus [23]; MTCC 1021, 48 h, read-out: IZ): 11 mm; zone of inhibition at 160 µM (Staphylococcus aureus [26]; ATCC 11632, 24 h, read-out: IZ): 22 mm; zone of inhibition at 20 µM ([27]; NTCC 10274, 24 h, read-out: IZ): 14 mm; zone of inhibition at 40 µM (Pseudomonas aeruginosa [28]; ATCC 15499, 24 h, read-out: IZ): 9 mm
